As usually defined, the pEC50 is the negative decadic logarithm of the EC50, by convention in mol/L. The low end stands for a high EC50, the high end for a low EC50.

pEC50: −log10 of the molar value. *1 amine or outer side, *2 acyl side, *3 side chain or, on linkers, in order; H or OH if unused. Where a SMILES comes first, the peptide text is derived from it. Side-chain parts run from the residue outwards. [ ]: non-standard residue; d: D form. The star is where a group is joined. γGlu = O=C(O)[C@H](CCC(=O)[*:2])N[*:1]; Palmitoyl = CCCCCCCCCCCCCCCC(=O)*; Aib = CC(C)(N)C(=O)O

Here are results for four compounds from patent US20140213513A1 (Sanofi, priority 2012, published 2014).

Holding throughout (type): cell-based
Common to all, as to details: Table 7; cAMP formation
On the technique in general: Cyclic AMP is a second messenger, typically raised through Gs and lowered through Gi signalling.

The target of assay [1] is T1, human GIP receptor (hGIP R) (Homo sapiens, UniProt P48546).
T1 construct: expressed in transfected cells
T1 sequence (P48546 22-466): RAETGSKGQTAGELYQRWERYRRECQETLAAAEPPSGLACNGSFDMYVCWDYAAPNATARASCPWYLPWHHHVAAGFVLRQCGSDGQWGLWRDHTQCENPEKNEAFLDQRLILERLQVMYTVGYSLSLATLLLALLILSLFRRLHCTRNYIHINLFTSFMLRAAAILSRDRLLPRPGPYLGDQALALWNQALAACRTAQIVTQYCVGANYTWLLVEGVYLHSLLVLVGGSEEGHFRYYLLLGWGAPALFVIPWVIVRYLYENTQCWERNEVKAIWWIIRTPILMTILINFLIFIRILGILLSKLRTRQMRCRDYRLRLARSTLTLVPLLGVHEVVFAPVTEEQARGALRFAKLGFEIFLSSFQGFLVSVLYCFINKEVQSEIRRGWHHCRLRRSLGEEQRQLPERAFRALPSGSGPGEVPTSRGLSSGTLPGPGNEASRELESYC
Briefly: cAMP response of HEK-293 cells stably expressing human GIP receptor (HTRF). The procedure, abridged: (§1)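 cAMP accumulation was read by homogeneous time-resolved fluorescence after 30 min compound exposure at room temperature. Stable receptor-expressing HEK-293 cells, 400000 cells/ml, were used in HEPES-buffered HBSS containing 0.1% BSA and the phosphodiesterase inhibitor IBMX (2 mM).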
A general note: TR-FRET usually uses a lanthanide donor and a delayed reading to cut background.

In assay [2] the target is T2, human glucagon receptor (hGLUC R) (Homo sapiens, UniProt P47871).
T2 construct: expressed in transfected cells
Briefly: cAMP response of HEK-293 cells stably expressing human glucagon receptor (HTRF). The procedure, abridged: as §1

In assay [3] the target is T3, human GLP-1 receptor (hGLP-1 R) (Homo sapiens, UniProt P43220).
T3 construct: expressed in transfected cells
In words: cAMP response of HEK-293 cells stably expressing human GLP-1 receptor (HTRF). The procedure, abridged: as §1

T2 sequence (P47871 26-477): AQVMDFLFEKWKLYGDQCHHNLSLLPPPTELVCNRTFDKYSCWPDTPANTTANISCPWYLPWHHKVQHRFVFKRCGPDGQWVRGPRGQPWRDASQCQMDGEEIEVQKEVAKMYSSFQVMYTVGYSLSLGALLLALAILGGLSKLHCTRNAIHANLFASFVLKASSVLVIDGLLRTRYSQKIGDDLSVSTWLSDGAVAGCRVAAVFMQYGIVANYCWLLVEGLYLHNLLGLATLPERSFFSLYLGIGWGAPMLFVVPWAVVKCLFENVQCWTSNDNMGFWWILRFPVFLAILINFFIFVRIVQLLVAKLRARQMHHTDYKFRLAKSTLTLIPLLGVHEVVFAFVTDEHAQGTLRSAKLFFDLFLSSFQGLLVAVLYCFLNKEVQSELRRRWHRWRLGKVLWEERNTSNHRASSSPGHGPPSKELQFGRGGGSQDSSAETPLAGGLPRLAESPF
T3 sequence (P43220 24-463): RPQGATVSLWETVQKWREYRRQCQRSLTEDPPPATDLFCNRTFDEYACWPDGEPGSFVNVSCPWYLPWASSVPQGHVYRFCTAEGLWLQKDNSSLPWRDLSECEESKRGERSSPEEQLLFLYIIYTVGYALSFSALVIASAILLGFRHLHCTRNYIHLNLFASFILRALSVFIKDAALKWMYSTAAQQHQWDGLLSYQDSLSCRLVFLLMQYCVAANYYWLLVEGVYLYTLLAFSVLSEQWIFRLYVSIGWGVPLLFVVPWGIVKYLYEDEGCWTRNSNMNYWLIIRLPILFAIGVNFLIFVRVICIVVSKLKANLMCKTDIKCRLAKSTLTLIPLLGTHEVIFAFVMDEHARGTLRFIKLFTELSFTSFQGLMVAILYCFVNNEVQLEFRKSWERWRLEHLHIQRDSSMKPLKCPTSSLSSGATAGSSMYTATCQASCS

As for `CCCCCCCCCCCCCCCC(=O)N[C@@H](CCC(=O)NCCCC[C@H](NC(=O)[C@H](CCC(N)=O)NC(=O)[C@H](CCCCN)NC(=O)[C@H](CO)NC(=O)[C@H](CC(C)C)NC(=O)[C@H](CC(=O)O)NC(=O)[C@H](CO)NC(=O)[C@@H](NC(=O)[C@H](Cc1ccccc1)NC(=O)[C@@H](NC(=O)CNC(=O)[C@H](CCC(N)=O)NC(=O)C(C)(C)NC(=O)[C@@H](N)Cc1ccc(O)cc1)[C@@H](C)O)[C@@H](C)O)C(=O)N[C@@H](CCC(=O)O)C(=O)N[C@@H](CO)C(=O)N[C@@H](CCCCN)C(=O)N[C@@H](C)C(=O)N[C@@H](C)C(=O)N[C@@H](CCC(N)=O)C(=O)N[C@@H](CC(=O)O)C(=O)N[C@@H](Cc1ccccc1)C(=O)N[C@H](C(=O)N[C@@H](CCC(=O)O)C(=O)N[C@@H](Cc1c[nH]c2ccccc12)C(=O)N[C@@H](CC(C)C)C(=O)N[C@@H](CCCCN)C(=O)N[C@@H](C)C(=O)NCC(=O)NCC(=O)N1CCC[C@H]1C(=O)N[C@@H](CO)C(=O)N[C@@H](CO)C(=O)NCC(=O)N[C@@H](C)C(=O)N1CCC[C@H]1C(=O)N1CCC[C@H]1C(=O)N1CCC[C@H]1C(=O)N[C@@H](CO)C(N)=O)[C@@H](C)CC)C(=O)O` [SEQ ID NO: 39, Y-Aib-Q-G-T-F-T-S-D-L-S-K-Q-K(yE-x53)-ESKAAQDFIEWLKAGGPSSGAPPPS-NH2] (H-Y[Aib]QGTFTSDLSKQK([γGlu-Palmitoyl])ESKAAQDFIEWLKAGGPSSGAPPPS-NH2), the pEC50 was 10.41 in assay [1], 10.72 in assay [2] and 11.35 in assay [3].

As for `CCCCCCCCCCCCCCCC(=O)N[C@@H](CCC(=O)NCCCC[C@H](NC(=O)[C@H](CCC(N)=O)NC(=O)[C@H](CCCCN)NC(=O)[C@H](CO)NC(=O)[C@H](CC(C)C)NC(=O)[C@H](CC(=O)O)NC(=O)[C@H](CO)NC(=O)[C@@H](NC(=O)[C@H](Cc1ccccc1)NC(=O)[C@@H](NC(=O)CNC(=O)[C@H](CCC(N)=O)NC(=O)C(C)(C)NC(=O)[C@@H](N)Cc1ccc(O)cc1)[C@@H](C)O)[C@@H](C)O)C(=O)N[C@@H](CC(=O)O)C(=O)N[C@@H](CO)C(=O)N[C@@H](CCCNC(=N)N)C(=O)N[C@@H](C)C(=O)N[C@@H](C)C(=O)N[C@@H](CCC(N)=O)C(=O)N[C@@H](CC(=O)O)C(=O)N[C@@H](Cc1ccccc1)C(=O)N[C@H](C(=O)N[C@@H](CCC(=O)O)C(=O)N[C@@H](Cc1c[nH]c2ccccc12)C(=O)N[C@@H](CC(C)C)C(=O)N[C@@H](CCCCN)C(=O)N[C@@H](C)C(=O)NCC(=O)NCC(=O)N1CCC[C@H]1C(=O)N[C@@H](CO)C(=O)N[C@@H](CO)C(=O)NCC(=O)N[C@@H](C)C(=O)N1CCC[C@H]1C(=O)N1CCC[C@H]1C(=O)N1CCC[C@H]1C(=O)N[C@@H](CO)C(N)=O)[C@@H](C)CC)C(=O)O` [SEQ ID NO: 66, Y-Aib-Q-G-T-F-T-S-D-L-S-K-Q-K(yE-x53)-DSRAAQDFIEWLKAGGPSSGAPPPS-NH2] (H-Y[Aib]QGTFTSDLSKQK([γGlu-Palmitoyl])DSRAAQDFIEWLKAGGPSSGAPPPS-NH2), the pEC50 was 10.08 in assay [1], 11.28 in assay [2] and 11.44 in assay [3].

Consider `CCCCCCCCCCCCCCCC(=O)N[C@@H](CCC(=O)NCCCC[C@H](NC(=O)[C@H](CCC(N)=O)NC(=O)[C@@H](NC(=O)[C@H](CO)NC(=O)[C@H](CC(C)C)NC(=O)[C@H](CC(=O)O)NC(=O)[C@H](CO)NC(=O)[C@@H](NC(=O)[C@H](Cc1ccccc1)NC(=O)[C@@H](NC(=O)CNC(=O)[C@H](CCC(N)=O)NC(=O)C(C)(C)NC(=O)[C@@H](N)Cc1ccc(O)cc1)[C@@H](C)O)[C@@H](C)O)[C@@H](C)CC)C(=O)N[C@@H](CC(=O)O)C(=O)N[C@@H](CCCCN)C(=O)N[C@@H](CCCNC(=N)N)C(=O)N[C@@H](C)C(=O)N[C@@H](C)C(=O)N[C@@H](CCC(N)=O)C(=O)N[C@@H](CC(=O)O)C(=O)N[C@@H](Cc1ccccc1)C(=O)N[C@H](C(=O)N[C@@H](CCC(=O)O)C(=O)N[C@@H](Cc1c[nH]c2ccccc12)C(=O)N[C@@H](CC(C)C)C(=O)N[C@@H](CCCCN)C(=O)N[C@@H](CCCCN)C(=O)NCC(=O)NCC(=O)N1CCC[C@H]1C(=O)N[C@@H](CO)C(=O)N[C@@H](CO)C(=O)NCC(=O)N[C@@H](C)C(=O)N1CCC[C@H]1C(=O)N1CCC[C@H]1C(=O)N1CCC[C@H]1C(=O)N[C@@H](CO)C(N)=O)[C@@H](C)CC)C(=O)O` [SEQ ID NO: 44, Y-Aib-Q-G-T-F-T-S-D-L-S-I-Q-K(yE-x53)-DKRAAQDFIEWLKKGGPSSGAPPPS-NH2] (H-Y[Aib]QGTFTSDLSIQK([γGlu-Palmitoyl])DKRAAQDFIEWLKKGGPSSGAPPPS-NH2), for which the pEC50 was 10.59 in assay [1], 10.26 in assay [2] and 11.01 in assay [3].

In the case of `CCCCCCCCCCCCCCCC(=O)N[C@@H](CCC(=O)NCCCC[C@H](NC(=O)[C@H](CCC(N)=O)NC(=O)[C@@H](NC(=O)[C@H](CO)NC(=O)[C@H](CC(C)C)NC(=O)[C@H](CC(=O)O)NC(=O)[C@H](CO)NC(=O)[C@@H](NC(=O)[C@H](Cc1ccccc1)NC(=O)[C@@H](NC(=O)CNC(=O)[C@H](CCC(=O)O)NC(=O)C(C)(C)NC(=O)[C@@H](N)Cc1ccc(O)cc1)[C@@H](C)O)[C@@H](C)O)[C@@H](C)CC)C(=O)N[C@@H](CCC(=O)O)C(=O)N[C@@H](CCCCN)C(=O)N[C@@H](CCCNC(=N)N)C(=O)N[C@@H](C)C(=O)N[C@@H](C)C(=O)NC(C)(C)C(=O)N[C@@H](CCC(=O)O)C(=O)N[C@@H](Cc1ccccc1)C(=O)N[C@H](C(=O)N[C@@H](CCC(=O)O)C(=O)N[C@@H](Cc1c[nH]c2ccccc12)C(=O)N[C@@H](CC(C)C)C(=O)N[C@@H](CCCCN)C(=O)N[C@@H](CCCNC(=N)N)C(=O)N[C@@H](C)C(=O)NCC(=O)N1CCC[C@H]1C(=O)N[C@@H](CO)C(=O)N[C@@H](CO)C(=O)NCC(=O)N[C@@H](C)C(=O)N1CCC[C@H]1C(=O)N1CCC[C@H]1C(=O)N1CCC[C@H]1C(=O)N[C@@H](CO)C(N)=O)[C@@H](C)CC)C(=O)O` [SEQ ID NO: 20, Y-Aib-E-G-T-F-T-S-D-L-S-I-Q-K(yE-x53)-E-K-R-A-A-Aib-E-F-I-E-W-L-K- R-A-G-P-S-S-G-A-P-P-P-S-NH2] (H-Y[Aib]EGTFTSDLSIQK([γGlu-Palmitoyl])EKRAA[Aib]EFIEWLKRAGPSSGAPPPS-NH2), the pEC50 in assay [1] is 10.79; in assay [2], 7.74; in assay [3] it was 11.09.
